The values below come from patent US6403626B1, “Benzimidazole derivatives” (Synaptic Pharmaceutical Corporation, priority 1994, dated 2002).

Series [1] deals with T1, α1C Human Adrenergic Receptor (Homo sapiens, UniProt P35348).
T1 construct: expressed in transfected cells; host or cells: LM(tk-) cells
T1 sequence (P35348 1-466): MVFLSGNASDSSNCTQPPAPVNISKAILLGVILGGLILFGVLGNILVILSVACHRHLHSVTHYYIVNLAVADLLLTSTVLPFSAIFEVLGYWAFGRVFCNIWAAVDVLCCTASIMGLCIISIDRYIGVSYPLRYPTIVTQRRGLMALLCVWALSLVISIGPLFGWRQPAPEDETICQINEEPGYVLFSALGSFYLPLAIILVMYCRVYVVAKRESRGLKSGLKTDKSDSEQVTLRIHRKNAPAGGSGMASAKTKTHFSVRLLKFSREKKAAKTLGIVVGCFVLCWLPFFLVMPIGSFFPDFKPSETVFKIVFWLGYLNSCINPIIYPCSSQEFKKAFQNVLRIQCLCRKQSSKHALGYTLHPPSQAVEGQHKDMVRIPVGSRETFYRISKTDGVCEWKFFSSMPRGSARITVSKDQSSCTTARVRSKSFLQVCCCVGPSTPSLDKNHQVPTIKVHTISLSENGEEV
Kind of series: Equilibrium competition binding, [3H] prazosin, membranes of transfected LM(tk-) cells. The settings on record: cloned human receptor, [3H] prazosin; for Ki: read-out: pKi Alpha-1 C (converted). Here is the method: (§1) Binding and functional assays were performed using stably transfected human alpha adrenergic receptors. Equilibrium competition binding assays were performed with membrane preparations from cultured LM(tk-) cells stably transfected with the cloned human adrenoceptor subtypes except for α2b, which was expressed in Y-1 cells, using [^3H] prazosin for α1 receptors and [^3H] rauwolscine for α2 receptors.
(§2) Transfected cells from culture flasks were scraped into 5 ml of 5 mM Tris-HCl, 5 mM EDTA, pH 7.5, and lysed by sonication. The cell lysates were centrifuged at 1000 rpm for 5 min at 4° C., and the supernatant was centrifuged at 30,000×g for 20 min at 4° C. The pellet was suspended in 50 mM Tris-HCl, 1 mM MgCl2, and 0.1% ascorbic acid at pH 7.5. Binding of α2 antagonist [^3H] rauwolscine ([…]) to membrane preparations of LM(tk-) cells was done in a final volume of 0.25 ml and incubated at 37° C. for 20 min. Nonspecific binding was determined in the presence of 10 μM phentolamine. The reaction was stopped by filtration through GF/B filters using a cell harvester.
The construct involved ligation three partial overlapping fragments: a 5′ 0.6 kb HincII genomic clone, a central 1.8 EcoRI hippocampal cDNA clone, and a 3′ 0.6 Kb PstI genomic clone. The hippocampal cDNA fragment overlaps with the 5′ and 3′ genomic clones so that the HincII and PstI sites at the 5 and 3′ ends of the cDNA clone, respectively, were utilized for ligation. This full-length clone was cloned into the KpnI site of the expression vector, using the 5′ and 3′ KpnI sites of the fragment, derived from vector (i.e., pBluescript) and 3′-untranslated sequences, respectively. Stable cell lines were selected as described above.

The target in series [2] is T2, α2B Human Adrenergic Receptor (Homo sapiens, UniProt P18089).
T2 construct: expressed in transfected cells; host or cells: Y-1 cells
T2 sequence (P18089 1-450): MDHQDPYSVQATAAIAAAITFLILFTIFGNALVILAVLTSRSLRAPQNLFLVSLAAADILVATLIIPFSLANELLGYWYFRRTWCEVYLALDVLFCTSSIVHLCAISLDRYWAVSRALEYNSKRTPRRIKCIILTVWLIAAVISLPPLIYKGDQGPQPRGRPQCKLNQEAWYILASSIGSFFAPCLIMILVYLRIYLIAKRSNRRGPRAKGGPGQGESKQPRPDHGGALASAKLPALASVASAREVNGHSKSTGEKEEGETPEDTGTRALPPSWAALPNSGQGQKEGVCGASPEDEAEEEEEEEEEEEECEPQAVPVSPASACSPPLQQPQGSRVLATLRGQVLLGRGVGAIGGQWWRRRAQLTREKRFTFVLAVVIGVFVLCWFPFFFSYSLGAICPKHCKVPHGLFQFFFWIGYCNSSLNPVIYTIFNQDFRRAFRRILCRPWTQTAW
Put plainly: Equilibrium competition binding, [3H] rauwolscine, membranes of transfected Y-1 cells. How it is done:
as §1
(§3) Stable cell lines were selected as described above.
as §2

Series [3] deals with T3, α1A Human Adrenergic Receptor (Homo sapiens, UniProt P25100).
T3 construct: expressed in transfected cells; host or cells: LM(tk-) cells
T3 sequence (P25100 1-572): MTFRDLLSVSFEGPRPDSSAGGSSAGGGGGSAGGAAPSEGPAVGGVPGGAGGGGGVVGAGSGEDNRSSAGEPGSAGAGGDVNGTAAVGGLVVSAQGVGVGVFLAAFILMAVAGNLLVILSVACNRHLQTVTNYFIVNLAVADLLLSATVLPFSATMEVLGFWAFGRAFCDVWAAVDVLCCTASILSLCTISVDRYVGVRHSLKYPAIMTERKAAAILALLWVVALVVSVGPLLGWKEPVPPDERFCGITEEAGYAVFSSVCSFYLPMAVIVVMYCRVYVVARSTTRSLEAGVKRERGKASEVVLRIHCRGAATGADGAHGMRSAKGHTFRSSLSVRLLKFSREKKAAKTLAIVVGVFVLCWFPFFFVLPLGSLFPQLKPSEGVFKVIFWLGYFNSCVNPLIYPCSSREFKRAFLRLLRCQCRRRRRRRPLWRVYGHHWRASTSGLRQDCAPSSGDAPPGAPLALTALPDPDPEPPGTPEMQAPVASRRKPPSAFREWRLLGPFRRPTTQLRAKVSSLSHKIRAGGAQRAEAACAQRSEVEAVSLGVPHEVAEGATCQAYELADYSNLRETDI
Put plainly: Equilibrium competition binding, [3H] prazosin, membranes of transfected LM(tk-) cells. Here is the method: as §1, §2, §3

The target of series [4] is T4, α1B Human Adrenergic Receptor (Homo sapiens, UniProt P35368).
T4 construct: The entire coding region of α1B(1563 bp); expressed in transfected cells; host or cells: LM(tk-) cells
T4 sequence (P35368 1-520): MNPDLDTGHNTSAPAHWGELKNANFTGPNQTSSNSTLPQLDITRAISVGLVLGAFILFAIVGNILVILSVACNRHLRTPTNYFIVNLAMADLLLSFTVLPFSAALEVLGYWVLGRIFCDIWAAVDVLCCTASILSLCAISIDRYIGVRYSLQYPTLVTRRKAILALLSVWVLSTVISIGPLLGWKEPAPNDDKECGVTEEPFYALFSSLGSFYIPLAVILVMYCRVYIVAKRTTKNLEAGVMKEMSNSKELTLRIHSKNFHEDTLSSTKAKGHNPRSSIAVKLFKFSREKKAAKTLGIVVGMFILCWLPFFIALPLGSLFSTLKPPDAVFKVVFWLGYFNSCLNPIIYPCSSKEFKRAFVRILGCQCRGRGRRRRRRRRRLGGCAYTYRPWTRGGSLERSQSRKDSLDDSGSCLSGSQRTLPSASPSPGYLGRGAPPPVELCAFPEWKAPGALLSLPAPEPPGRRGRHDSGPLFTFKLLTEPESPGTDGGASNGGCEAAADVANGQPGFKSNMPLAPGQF
The series is described as above. The following applies: cloned human receptor, [3H] prazosin; for Ki: read-out: pKi Alpha-1 B (converted). Here is the method:
as §1, §2
The construct involved ligating the full-length containing EcoRI brainstem cDNA fragment from ZapII into the expression vector. The stable cell lines were selected as described above.

The target in series [5] is T5, α2C Human Adrenergic Receptor (Homo sapiens, UniProt P18825).
T5 sequence (P18825 1-462): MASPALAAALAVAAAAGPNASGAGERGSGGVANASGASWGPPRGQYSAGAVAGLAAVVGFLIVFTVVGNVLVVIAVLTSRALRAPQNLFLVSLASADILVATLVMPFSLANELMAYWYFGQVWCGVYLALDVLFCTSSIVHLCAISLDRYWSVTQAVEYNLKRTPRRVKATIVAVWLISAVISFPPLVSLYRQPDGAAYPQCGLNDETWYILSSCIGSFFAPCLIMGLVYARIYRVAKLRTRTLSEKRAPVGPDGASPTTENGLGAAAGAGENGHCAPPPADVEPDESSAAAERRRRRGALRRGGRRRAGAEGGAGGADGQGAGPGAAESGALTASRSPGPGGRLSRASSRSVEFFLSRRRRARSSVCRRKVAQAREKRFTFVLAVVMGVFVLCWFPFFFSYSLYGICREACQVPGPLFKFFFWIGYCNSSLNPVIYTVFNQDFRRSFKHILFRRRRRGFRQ
Put plainly: Equilibrium competition binding, [3H] rauwolscine, membranes of transfected LM(tk-) cells.

The target in series [6] is T5, α2C Human Adrenergic Receptor. It is filed as cell-based. On the set-up: The entire coding region of α2C (1383 bp), including 2 bp of 5′ UT and 400 bp of 3′ UT; expressed in transfected cells; host or cells: LM(tk-) cells. The settings on record: for I.A Alpha-2 C: functional cAMP assay. How it is done:
as §1
The insert housing this coding region was an @ 1.8 kb Ncol/EcoRI human spleen genomic fragment which was end-blunted by either T4 polymerase or Klenow fragment of DNA polymerase. Stable cell lines were selected as described above.
(§4) The agonist activity (expressed as pEC50) was measured as a function of the ability to inhibit the forskolin-stimulated synthesis of cyclic adenosine monophosphate (cAMP). The stably transfected cells were incubated in Ham's F10 with 5 mM theophylline, 10 mM HEPES, 10 μM pargyline, and/or appropriate concentrations of forskolin for 20 min at 37° C. in 5% CO2. The tested compounds were then added to a final concentration of 0.001 nM to 1 μM and incubated for an additional 15 min at 37° C. in 5% CO2. The medium was aspirated and the reaction was stopped by the addition of 100 mM HCl . […] The plates are stored at 4° C. for 15 min and assayed to determine the linear concentration of cAMP. The appropriate dilution is interpolated from the standard curve of cold cAMP. The assessment of cAMP formation is determined by radioimmunoassay (cAMP radioimmunoassay kit; Advanced Magnetics, Cambridge, Mass.). Radioactivity was quantified using a Packard COBRA Auto Gamma counter, equipped with data reduction software.

Series [7] concerns the target T2, α2B Human Adrenergic Receptor. In kind it is cell-based. Here is the method:
as §1, §3, §4

The mark [8] stands for this setting: cloned human receptor, [3H] rauwolscine, read-out: pKi Alpha-2 B (converted).
[9] abbreviates: cloned human receptor, [3H] rauwolscine.

Read-outs that look alike come from different tables or passages of the source.

Turning to `CC(C)Cn1cnc2c(Br)c(NC3=NCCN3)ccc21` [Example 23, 1-Isobutyl-4-bromo-5-(2-imidazolin-2-ylamino)Benzimidazole], the Ki in series [1] is 380 nM; in series [2] (setting [8]), 309 nM; in series [3] it was 5010 nM; in series [4] it was 38 µM; in series [5], 229 nM.

With `c1cc2c(cc1NC1=NCCN1)ncn2CC1CCCCC1` [Example 29, 1-Cyclohexylmethyl-5-(2-imidazolin-2-ylamino)Benzimidazole], the Ki in series [1] was 1410 nM; in series [2] (setting [8]), 363 nM; in series [3] (cloned human receptor, [3H] prazosin, read-out: pKi Alpha-1 A (converted)), 912 nM; in series [4] it was 20.9 µM; in series [5], 490 nM.

Turning to `Brc1cc(NC2=NCCN2)c(Br)c2[nH]cnc12` [Example 58, 4,7-Dibromo-5-(2-imidazolin-2-ylamino)Benzimidazole], the melting point (as a rule, the temperature of the solid-liquid transition) lay in the range of 320 to 321 °C. This compound showed a Ki in series [2] of 174 nM. In series [6], the half-maximal effective concentration (EC50) (usually the midpoint of the concentration-response curve) was 3.24 nM and the “I.A Alpha-2 C” value was determined as 1.00. In series [5], the Ki was 30.9 nM. In series [7], the 50% effective concentration (EC50) was 28.2 nM and the “I.A Alpha-2 B” value worked out at 0.50.

With `CCCn1cnc2c(Br)c(NC3=NCCN3)ccc21` [Example 14, 1-Propyl-4-bromo-5-(imidazolin-2-ylamino)Benzimidazole], in series [1], the “pKi Alpha-1 C” value is on record as 6.21. Also, in series [2] (setting [9]), the “pKi Alpha-2 B” value is 6.66. The “pKi Alpha-1 A” value in series [3] (cloned human receptor, [3H] prazosin) is 5.63. In addition, the “pKi Alpha-1 B” value in series [4] is 4.69. Also, in series [5] (setting [9]), the “pKi Alpha-2 C” value was 6.64.

For `CC(C)n1cnc2ccc(NC3=NCCN3)c(Br)c21` [Example 21, 3-Isopropyl-4-bromo-5-(2-imidazolin-2-ylamino)Benzimidazole], the Ki in series [1] was 1200 nM; in series [2] (setting [8]), 21.4 nM; in series [3], 741 nM; in series [4], 4.68 µM.

Regarding `CC(C)Cn1cnc2ccc(NC3=NCCN3)c(Br)c21` [Example 24, 3-Isobutyl-4-bromo-5-(2-imidazolin-2-ylamino)Benzimidazole], the Ki in series [1] is 251 nM; in series [2], 12.9 nM; in series [3] it was 309 nM; in series [4], 4.9 µM.

Compound `Cc1cc(NC2=NCCN2)c(Br)c2[nH]cnc12` [Example 59, 4-Bromo-7-methyl-5-(2-imidazolin-2-ylamino)Benzimidazole] registered a melting point of 242 to 244 °C. This compound gave a Ki in series [2] of 7.94 nM. Moreover, in series [6], the EC50 was 1.29 nM and the “I.A Alpha-2 C” value was 1.00. The compound further showed a Ki in series [5] of 16.6 nM. In series [7], the concentration for a half-maximal effect (EC50) is 40.7 nM and the “I.A Alpha-2 B” value came to 0.90.

For `CCCn1cnc2ccc(NC3=NCCN3)c(Br)c21` [Example 16, 3-Propyl-4-bromo-5-(2-imidazolin-2-ylamino)Benzimidazole], the Ki was 417 nM in series [1], 12.3 nM in series [2] (setting [8]), 55 nM in series [3] and 0.513 µM in series [4].
